Measured values published in patent US20100197502A1, “Crystalline form of [3-(4,5-dihydro-3-isoxazolyl)-2-methyl-4-(methylsulfonyl)phenyl]-(5-hydroxy-1-methyl-1H-pyrazol-4-yl)methanone” (priority 2007, published 2010).

Assays:
[1] = Stability of the crystalline modification with regard to conversion into another form; conditions: for stability of the crystalline modification: solid forms of topramezone compared
[2] = Stability of formulations (e.g. aqueous suspension concentrates) comprising the solid form; type: physicochemical; conditions: compared between forms
[3] = Stability of the solvate at room temperature (release of solvent, conversion); type: physicochemical
Method: (§1) Crystallization of topramezone by evaporation of a solution of topramezone in a mixture of toluene with dichloromethane in the volume ratio 2:1 at temperatures below 30° C., in particular at temperatures in the range from 10 to 30° C. yields an unstable solvate V-S, which comprises 1 mol of toluene per mol of topramezone.
as §1, with “chlorobenzene” for “toluene”, “dichloromethane” for “dichloromethane in the volume ratio 2:1”, “VI-S,” for “V-S,”
Crystallization of topramezone by evaporation of a solution of topramezone in dichloromethane at temperatures below 30° C., in particular at temperatures in the range from 10 to 30° C. yields an unstable solvate VII-S, which comprises dichloromethane.

Compound | stability of the crystalline modification [1] | stability of formulations which comprise the form [2] | also measured
Cc1c(C(=O)c2cnn(C)c2O)ccc(S(C)(=O)=O)c1C1=NOCC1 [form I, [3-(4,5-dihydro-3-isoxazolyl)-2-methyl-4-(methylsulfonyl)phenyl]-(5-hydroxy-1-methyl-1H-pyrazol-4-yl)methanone] | stable | markedly higher | stability with regard to conversion into another form ([1]; compared to other solid forms): increased stability
Cc1c(C(=O)c2cnn(C)c2O)ccc(S(C)(=O)=O)c1C1=NOCC1 [form II, [3-(4,5-dihydro-3-isoxazolyl)-2-methyl-4-(methylsulfonyl)phenyl]-(5-hydroxy-1-methyl-1H-pyrazol-4-yl)methanone] | lower stability | lower stability | –
Cc1c(C(=O)c2cnn(C)c2O)ccc(S(C)(=O)=O)c1C1=NOCC1 [form III, [3-(4,5-dihydro-3-isoxazolyl)-2-methyl-4-(methylsulfonyl)phenyl]-(5-hydroxy-1-methyl-1H-pyrazol-4-yl)methanone] | lower stability | lower stability | –
Cc1c(C(=O)c2cnn(C)c2O)ccc(S(C)(=O)=O)c1C1=NOCC1 [form IV, [3-(4,5-dihydro-3-isoxazolyl)-2-methyl-4-(methylsulfonyl)phenyl]-(5-hydroxy-1-methyl-1H-pyrazol-4-yl)methanone] | lower stability | lower stability | –
Cc1c(C(=O)c2cnn(C)c2O)ccc(S(C)(=O)=O)c1C1=NOCC1 [form V-S] | lower stability | – | stability of formulations which comprise the form ([2]; listed as solvate V-S): lower stability; behaviour of the solvate at room temperature ([3]; listed as solvate V-S): releasing the solvent again and then forms a mixture of the forms II and IV
Cc1c(C(=O)c2cnn(C)c2O)ccc(S(C)(=O)=O)c1C1=NOCC1 [form VI-S] | lower stability | – | stability of formulations which comprise the form ([2]; listed as solvate VI-S): lower stability; behaviour of the solvate at room temperature ([3]; listed as solvate VI-S): releasing the solvent again and then forms the form II
Cc1c(C(=O)c2cnn(C)c2O)ccc(S(C)(=O)=O)c1C1=NOCC1 [form VII-S] | lower stability | – | stability of formulations which comprise the form ([2]; listed as solvate VII-S): lower stability; behaviour of the solvate at room temperature ([3]; listed as solvate VII-S): releasing the solvent again and then forms the form I
Cc1c(C(=O)c2cnn(C)c2O)ccc(S(C)(=O)=O)c1C1=NOCC1 [form VIII, [3-(4,5-dihydro-3-isoxazolyl)-2-methyl-4-(methylsulfonyl)phenyl]-(5-hydroxy-1-methyl-1H-pyrazol-4-yl)methanone] | lower stability | lower stability | –
